Laboratory results taken from PubChem BioAssay AID1745844 (Carcinogenic Potency Database (CPDB), 2022).
The source made the active and inactive calls. The rule behind the calls is not given here.

Tested on: rodent lifetime carcinogenesis bioassay, tumor incidence TD50
Assay: chronic cancer bioassays in animals – CPDB, compiled studies (AID 1745844)

In the case of CN(N=O)c1ccncc1, the carcinogen call (rat, strain BD VI, females, by gavage, site: any site (literature study), lesion: benign tumor, dosed 101 weeks, study length 101 weeks) is reported as “negative (inactive)”, the TD50 (rat, strain BD VI, females, by gavage, site: any site (literature study), lesion: malignant tumor, dosed 101 weeks, study length 101 weeks) is reported as 26.8 mg/kg/day (inactive) and the carcinogen call (rat, strain BD VI, females, by gavage, site: any site (literature study), lesion: several types, types named in the paper, dosed 101 weeks, study length 101 weeks) is reported as “negative (inactive)”. For the same compound, the carcinogen call (rat, strain BD VI, females, by gavage, site: liver, lesion: several types, types named in the paper, dosed 101 weeks, study length 101 weeks) was “negative (inactive)”.

C=CC1CC=CCC1 (stereo unspecified) showed a TD50 (mouse, strain B6C3F1, females, by gavage, site: adrenal capsule, lesion: adenoma, NOS, dosed 103 weeks, study length 104 weeks) of 1050 mg/kg/day, a TD50 (mouse, strain B6C3F1, females, by gavage, site: any site (literature study), lesion: several types, types named in the paper, dosed 103 weeks, study length 104 weeks) of 149 mg/kg/day and a TD50 (mouse, strain B6C3F1, females, by gavage, site: liver, lesion: hepatocellular adenoma + hepatocellular carcinoma + neoplastic nodule, dosed 103 weeks, study length 104 weeks) of 1480 mg/kg/day. For the same compound, the TD50 (mouse, strain B6C3F1, females, by gavage, site: lung, lesion: alveolar/bronchiolar adenoma + alveolar/bronchiolar carcinoma, dosed 103 weeks, study length 104 weeks) was 19000 mg/kg/day, the TD50 (mouse, strain B6C3F1, females, by gavage, site: mesenteric lymph node + multiple organs + small intestine, lesion: malignant lymphoma, lymphocytic type, dosed 103 weeks, study length 104 weeks) was 839 mg/kg/day and the TD50 (mouse, strain B6C3F1, females, by gavage, site: ovary, lesion: granulosa-cell carcinoma + granulosa-cell tumor + mixed tumor, benign, dosed 103 weeks, study length 104 weeks) was 94.4 mg/kg/day. The TD50 (mouse, strain B6C3F1, females, by gavage, site: ovary, lesion: granulosa-cell carcinoma + granulosa-cell tumor, dosed 103 weeks, study length 104 weeks) was 309 mg/kg/day, the TD50 (mouse, strain B6C3F1, females, by gavage, site: ovary, lesion: granulosa-cell tumor, dosed 103 weeks, study length 104 weeks) was 361 mg/kg/day and the TD50 (mouse, strain B6C3F1, females, by gavage, site: ovary, lesion: mixed tumor, benign, dosed 103 weeks, study length 104 weeks) was 106 mg/kg/day. For the same compound, the TD50 (mouse, strain B6C3F1, males, by gavage, site: any site (literature study), lesion: several types, types named in the paper, dosed 103 weeks, study length 104 weeks) was 307 mg/kg/day, the TD50 (mouse, strain B6C3F1, males, by gavage, site: liver, lesion: hepatocellular adenoma + hepatocellular carcinoma + neoplastic nodule, dosed 103 weeks, study length 104 weeks) was 1270 mg/kg/day and the TD50 (mouse, strain B6C3F1, males, by gavage, site: lung, lesion: alveolar/bronchiolar adenoma + alveolar/bronchiolar carcinoma, dosed 103 weeks, study length 104 weeks) was 490 mg/kg/day. The TD50 (mouse, strain B6C3F1, males, by gavage, site: lung, lesion: alveolar/bronchiolar adenoma, dosed 103 weeks, study length 104 weeks) was 926 mg/kg/day, the TD50 (mouse, strain B6C3F1, males, by gavage, site: mesenteric lymph node + multiple organs + spleen, lesion: malignant lymphoma, histiocytic type + malignant lymphoma, mixed type + malignant lymphoma, lymphocytic type, dosed 103 weeks, study length 104 weeks) was 623 mg/kg/day and the TD50 (rat, strain Fischer 344, females, by gavage, site: any site (literature study), lesion: several types, types named in the paper, dosed 103 weeks, study length 104 weeks) was 305 mg/kg/day. The TD50 (rat, strain Fischer 344, females, by gavage, site: clitoral gland, lesion: adenoma, NOS + squamous-cell carcinoma, dosed 103 weeks, study length 104 weeks) was 580 mg/kg/day, the TD50 (rat, strain Fischer 344, females, by gavage, site: liver, lesion: hepatocellular adenoma + hepatocellular carcinoma + neoplastic nodule, dosed 103 weeks, study length 104 weeks) was 3.85e+06 mg/kg/day and the TD50 (rat, strain Fischer 344, males, by gavage, site: adrenal gland, lesion: pheochromocytoma + pheochromocytoma, malignant, dosed 103 weeks, study length 104 weeks) was 159 mg/kg/day. For the same compound, the TD50 (rat, strain Fischer 344, males, by gavage, site: any site (literature study), lesion: several types, types named in the paper, dosed 103 weeks, study length 104 weeks) was 119 mg/kg/day, the TD50 (rat, strain Fischer 344, males, by gavage, site: liver, lesion: hepatocellular adenoma + hepatocellular carcinoma + neoplastic nodule, dosed 103 weeks, study length 104 weeks) was 132000 mg/kg/day and the TD50 (rat, strain Fischer 344, males, by gavage, site: skin, lesion: squamous-cell carcinoma + squamous-cell papilloma, dosed 103 weeks, study length 104 weeks) was 769 mg/kg/day. For the same compound, the TD50 (rat, strain Fischer 344, males, by gavage, site: skin, lesion: squamous-cell papilloma, dosed 103 weeks, study length 104 weeks) was 935 mg/kg/day and the TD50 (rat, strain Fischer 344, males, by gavage, site: testis, lesion: interstitial-cell tumor, dosed 103 weeks, study length 104 weeks) was 62.3 mg/kg/day.

In the case of O=c1cc[nH]c(=O)[nH]1, the TD50 (mouse, strain B6C3F1, females, in feed, site: liver, lesion: hyperplastic nodule, dosed 96 weeks, study length 96 weeks) is reported as 18200 mg/kg/day, the TD50 (mouse, strain B6C3F1, females, in feed, site: urinary bladder, lesion: carcinoma, in situ, dosed 96 weeks, study length 96 weeks) is reported as 56700 mg/kg/day and the TD50 (mouse, strain B6C3F1, females, in feed, site: urinary bladder, lesion: leiomyosarcoma, dosed 96 weeks, study length 96 weeks) is reported as 56700 mg/kg/day. The TD50 (mouse, strain B6C3F1, females, in feed, site: urinary bladder, lesion: transitional-cell carcinoma, dosed 96 weeks, study length 96 weeks) was 1450 mg/kg/day, the TD50 (mouse, strain B6C3F1, males, in feed, site: liver, lesion: hyperplastic nodule, dosed 96 weeks, study length 96 weeks) was 48800 mg/kg/day and the TD50 (mouse, strain B6C3F1, males, in feed, site: lung, lesion: adenocarcinoma, dosed 96 weeks, study length 96 weeks) was 52300 mg/kg/day. For the same compound, the TD50 (mouse, strain B6C3F1, males, in feed, site: urinary bladder, lesion: squamous-cell carcinoma, dosed 96 weeks, study length 96 weeks) was 25700 mg/kg/day, the TD50 (mouse, strain B6C3F1, males, in feed, site: urinary bladder, lesion: transitional-cell carcinoma, dosed 96 weeks, study length 96 weeks) was 25700 mg/kg/day and the TD50 (rat, strain F344/DuCrj, females, in feed, site: kidney/pelvis, lesion: carcinoma, dosed 104 weeks, study length 104 weeks) was 9760 mg/kg/day. For the same compound, the TD50 (rat, strain F344/DuCrj, females, in feed, site: urinary bladder, lesion: squamous-cell papilloma, dosed 104 weeks, study length 104 weeks) was 29300 mg/kg/day, the TD50 (rat, strain F344/DuCrj, females, in feed, site: urinary bladder, lesion: transitional-cell carcinoma, dosed 104 weeks, study length 104 weeks) was 5640 mg/kg/day and the TD50 (rat, strain F344/DuCrj, females, in feed, site: urinary bladder, lesion: transitional-cell papilloma, dosed 104 weeks, study length 104 weeks) was 4260 mg/kg/day. The TD50 (rat, strain F344/DuCrj, males, in feed, site: kidney/pelvis, lesion: carcinoma, dosed 104 weeks, study length 104 weeks) was 3090 mg/kg/day, the TD50 (rat, strain F344/DuCrj, males, in feed, site: kidney/pelvis, lesion: papilloma, dosed 104 weeks, study length 104 weeks) was 5750 mg/kg/day and the TD50 (rat, strain F344/DuCrj, males, in feed, site: urinary bladder, lesion: leiomyosarcoma, dosed 104 weeks, study length 104 weeks) was 24300 mg/kg/day. It also gave a TD50 (rat, strain F344/DuCrj, males, in feed, site: urinary bladder, lesion: squamous-cell carcinoma, dosed 104 weeks, study length 104 weeks) of 7800 mg/kg/day, a TD50 (rat, strain F344/DuCrj, males, in feed, site: urinary bladder, lesion: squamous-cell papilloma, dosed 104 weeks, study length 104 weeks) of 24300 mg/kg/day and a TD50 (rat, strain F344/DuCrj, males, in feed, site: urinary bladder, lesion: transitional-cell carcinoma, dosed 104 weeks, study length 104 weeks) of 357 mg/kg/day. The TD50 (rat, strain F344/DuCrj, males, in feed, site: urinary bladder, lesion: transitional-cell papilloma, dosed 104 weeks, study length 104 weeks) was 511 mg/kg/day.

COC(=O)NN was tested, and the carcinogen call (rat, strain Wistar, females, in feed, site: any site (literature study), lesion: one or several types, types not named, dosed 104 weeks, study length 104 weeks) was “negative (inactive)” and the carcinogen call (rat, strain Wistar, males, in feed, site: any site (literature study), lesion: one or several types, types not named, dosed 104 weeks, study length 104 weeks) was “negative (inactive)”.

O=C(O)Cc1c[nH]c2ccccc12 was tested, and the carcinogen call (mouse, strain B6AKF1, females, oral dosing, site: any site (literature study), lesion: several types, types named in the paper, dosed 76 weeks, study length 76 weeks) was “negative (inactive)”, the carcinogen call (mouse, strain B6AKF1, females, oral dosing, site: liver, lesion: hepatoma, dosed 76 weeks, study length 76 weeks) was “negative (inactive)” and the carcinogen call (mouse, strain B6AKF1, females, oral dosing, site: lung, lesion: adenoma, dosed 76 weeks, study length 76 weeks) was “negative (inactive)”. The carcinogen call (mouse, strain B6AKF1, males, oral dosing, site: any site (literature study), lesion: several types, types named in the paper, dosed 76 weeks, study length 76 weeks) was “negative (inactive)”, the carcinogen call (mouse, strain B6AKF1, males, oral dosing, site: liver, lesion: hepatoma, dosed 76 weeks, study length 76 weeks) was “negative (inactive)” and the carcinogen call (mouse, strain B6AKF1, males, oral dosing, site: lung, lesion: adenoma, dosed 76 weeks, study length 76 weeks) was “negative (inactive)”. For the same compound, the TD50 (mouse, strain B6C3F1, females, oral dosing, site: any site (literature study), lesion: several types, types named in the paper, dosed 76 weeks, study length 76 weeks) was 538 mg/kg/day (inactive), the carcinogen call (mouse, strain B6C3F1, females, oral dosing, site: liver, lesion: hepatoma, dosed 76 weeks, study length 76 weeks) was “negative (inactive)” and the TD50 (mouse, strain B6C3F1, females, oral dosing, site: lung, lesion: adenoma, dosed 76 weeks, study length 76 weeks) was 538 mg/kg/day (inactive). For the same compound, the TD50 (mouse, strain B6C3F1, males, oral dosing, site: any site (literature study), lesion: several types, types named in the paper, dosed 76 weeks, study length 76 weeks) was 40.3 mg/kg/day (inactive), the TD50 (mouse, strain B6C3F1, males, oral dosing, site: liver, lesion: hepatoma, dosed 76 weeks, study length 76 weeks) was 113 mg/kg/day (inactive) and the TD50 (mouse, strain B6C3F1, males, oral dosing, site: lung, lesion: adenoma, dosed 76 weeks, study length 76 weeks) was 500 mg/kg/day (inactive).

ClC(Br)Br gave a TD50 (mouse, strain B6C3F1, females, by gavage, site: liver, lesion: hepatocellular adenoma + hepatocellular carcinoma + neoplastic nodule, dosed 105 weeks, study length 106 weeks) of 139 mg/kg/day, a TD50 (mouse, strain B6C3F1, females, by gavage, site: liver, lesion: hepatocellular adenoma + hepatocellular carcinoma, dosed 105 weeks, study length 106 weeks) of 139 mg/kg/day and a TD50 (mouse, strain B6C3F1, females, by gavage, site: liver, lesion: hepatocellular adenoma, dosed 105 weeks, study length 106 weeks) of 211 mg/kg/day. The TD50 (mouse, strain B6C3F1, males, by gavage, site: any site (literature study), lesion: several types, types named in the paper, dosed 105 weeks, study length 106 weeks) was 11.3 mg/kg/day, the TD50 (mouse, strain B6C3F1, males, by gavage, site: liver, lesion: hepatocellular adenoma + hepatocellular carcinoma + neoplastic nodule, dosed 105 weeks, study length 106 weeks) was 20.7 mg/kg/day and the TD50 (mouse, strain B6C3F1, males, by gavage, site: liver, lesion: hepatocellular adenoma + hepatocellular carcinoma, dosed 105 weeks, study length 106 weeks) was 20.7 mg/kg/day. The TD50 (mouse, strain B6C3F1, males, by gavage, site: liver, lesion: hepatocellular carcinoma, dosed 105 weeks, study length 106 weeks) was 33.5 mg/kg/day, the TD50 (mouse, strain B6C3F1, males, by gavage, site: lung, lesion: alveolar/bronchiolar adenoma + alveolar/bronchiolar carcinoma, dosed 105 weeks, study length 106 weeks) was 115 mg/kg/day and the carcinogen call (rat, strain Fischer 344, females, by gavage, site: any site (literature study), lesion: several types, types named in the paper, dosed 104 weeks, study length 105 weeks) was “negative (inactive)”. For the same compound, the TD50 (rat, strain Fischer 344, females, by gavage, site: liver, lesion: hepatocellular adenoma + hepatocellular carcinoma + neoplastic nodule, dosed 104 weeks, study length 105 weeks) was 591 mg/kg/day, the carcinogen call (rat, strain Fischer 344, males, by gavage, site: any site (literature study), lesion: several types, types named in the paper, dosed 104 weeks, study length 105 weeks) was “negative (inactive)” and the TD50 (rat, strain Fischer 344, males, by gavage, site: liver, lesion: hepatocellular adenoma + hepatocellular carcinoma + neoplastic nodule, dosed 104 weeks, study length 105 weeks) was 150 mg/kg/day.

With CC(C)(OCc1ccc(-c2ccc(Cl)cc2)cc1)C(=O)O the carcinogen call (hamster, strain Syrian Golden, females, in feed, site: liver, lesion: one or several types, types not named, dosed 104 weeks, study length 104 weeks) was “negative (inactive)”, the carcinogen call (hamster, strain Syrian Golden, females, in feed, site: lung, lesion: one or several types, types not named, dosed 104 weeks, study length 104 weeks) was “negative (inactive)” and the carcinogen call (hamster, strain Syrian Golden, males, in feed, site: liver, lesion: one or several types, types not named, dosed 104 weeks, study length 104 weeks) was “negative (inactive)”. The TD50 (hamster, strain Syrian Golden, males, in feed, site: lung, lesion: one or several types, types not named, dosed 104 weeks, study length 104 weeks) was 1510 mg/kg/day (inactive), the TD50 (mouse, strain C57BL/10J, females, in feed, site: liver, lesion: hepatocellular carcinoma, dosed 78 weeks, study length 78 weeks) was 870 mg/kg/day and the TD50 (mouse, strain C57BL/10J, females, in feed, site: lung, lesion: one or several types, types not named, dosed 78 weeks, study length 78 weeks) was 1010 mg/kg/day. The TD50 (mouse, strain C57BL/10J, males, in feed, site: liver, lesion: hepatocellular adenoma, dosed 78 weeks, study length 78 weeks) was 154 mg/kg/day, the TD50 (mouse, strain C57BL/10J, males, in feed, site: liver, lesion: hepatocellular carcinoma, dosed 78 weeks, study length 78 weeks) was 214 mg/kg/day and the TD50 (rat, strain Alpk:APfSD, males, in feed, site: liver, lesion: hepatocellular adenoma, dosed 104 weeks, study length 104 weeks) was 62.5 mg/kg/day.
